From patent publication US6878514B1, “Methods for identifying agents that inhibit serum aging factors and uses and compositions thereof” (Purdue Research Foundation, priority 1999, dated 2005)
Where two headings read alike, the source gives them in different places. One block for each molecule: values may come before it.

Experiments:
[1] = molecular target: T1, NOX (NADH oxidase / ubiquinol oxidase) from HeLa cells (Homo sapiens, UniProt Q16206); conditions: NOX partially purified from surface of HeLa cells; cited from earlier work
T1 construct: other: HeLa NOX preparation; other: NOX partially purified from surface of HeLa cells
T1 sequence (Q16206 1-610): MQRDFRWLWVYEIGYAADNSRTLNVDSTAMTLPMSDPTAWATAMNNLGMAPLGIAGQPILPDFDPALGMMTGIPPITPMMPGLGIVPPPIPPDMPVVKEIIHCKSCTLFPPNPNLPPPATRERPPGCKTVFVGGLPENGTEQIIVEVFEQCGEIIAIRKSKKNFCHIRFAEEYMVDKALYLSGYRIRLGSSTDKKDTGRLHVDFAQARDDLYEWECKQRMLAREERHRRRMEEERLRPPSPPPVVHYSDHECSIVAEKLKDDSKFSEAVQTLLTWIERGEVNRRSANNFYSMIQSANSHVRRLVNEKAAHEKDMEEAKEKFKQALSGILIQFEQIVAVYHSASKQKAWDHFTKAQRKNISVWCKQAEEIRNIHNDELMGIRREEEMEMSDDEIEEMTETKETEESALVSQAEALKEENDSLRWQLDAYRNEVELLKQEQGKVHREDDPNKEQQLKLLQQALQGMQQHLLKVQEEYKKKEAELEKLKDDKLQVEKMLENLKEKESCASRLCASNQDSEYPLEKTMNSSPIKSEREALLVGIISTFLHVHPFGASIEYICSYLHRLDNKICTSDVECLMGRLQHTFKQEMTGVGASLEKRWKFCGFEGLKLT

BT-20 = assay: UV-induced superoxide production (cytochrome c reduction) by BT-20 cells; assay type: cell-based, human
Experimental: (§1) The generation of superoxide radical was determined by assaying the rate of superoxide dismutase (SOD)-inhibitable cytochrome c reduction (Mayo and Curnette, 1990, Meth Enzymol. 186:567-575 and Butler et al., 1982, J. Biol. Chem. 257:10747-10750). The cytochrome c was from horse heart mitochondria (type VI, Sigma) and was dissolved in PBSG buffer (see below) to make a solution with a concentration of 1 mg/ml. Air-saturated reaction mixtures of […] cytochrome c stock solution and […] of a cell suspension (suspended in PBSG buffer) to give a final concentration of ˜5×10^6 cells/ml were added to 2 ml of PBSG buffer (138 mM NaCl, 2.7 mM KCl, 8.1 mM Na2HHPO4, pH 7.4 supplemented with 0.9 mM CaCl2, and 7.5 mM glucose and contained in plastic cuvettes. The formation of reduced cytochrome c was measured in the presence and absence of SOD (15 mg, Sigma) or capsaicin (2.5 mM) by comparing the absorbance of the mixture at 550 nm-540 nm. Superoxide formation was stimulated by using a handheld UV light (254 nm, 200 mw/cm^2). The extent of cytochrome c reduction was monitored spectrophotometrically at 550 nm every ten sec with gentle mixing between readings. Data were analyzed from the slope of the change in a 550 nm-540 nm before and after UV and then again after SOD or capsaicin was added. Data were expressed as nmoles O2[…]/10^6 cells using a value of SM550nm=19.1×10^3 M^−1 cm^−1.

[2] = molecular target: T2, partially-purified preparation of the oxidase from HeLa cells (Homo sapiens, UniProt Q16206); assay: UV-induced superoxide generation by partially-purified oxidase from HeLa cells; assay type: biochemical
T2 construct: endogenous in cells; host or cells: HeLa
T2 sequence (Q16206 1-610): T1 sequence (Q16206 1-610)

HeLa S = assay: UV-induced superoxide production (cytochrome c reduction) by HeLa S cells; assay type: cell-based, human
Experimental: as §1

MCF 10A = assay: UV-induced superoxide production (cytochrome c reduction) by MCF 10A cells; assay type: cell-based, human
Experimental: as §1

[3] = molecular target: T1, NOX (NADH oxidase / ubiquinol oxidase) from HeLa cells; assay: NOX-catalyzed oxidation of ubiquinol (preparation solubilized from HeLa cells); assay type: biochemical; conditions: HeLa NOX preparation; for EC50: read-out: EC50 inhibition of NOX-catalyzed oxidation of ubiquinol
Experimental: (§2) FIG. 1. Oxidation of reduced ubiquinol at 37° C. by an enzymatic preparation with NADH oxidase activity solubilized from HeLa cells by low pH treatmnent, followed by heat and proteinase K. The disappearance of reduced ubiquinol was determined from the increase in absorbance at 410 nm as a function of time in the presence of 1 mg of the HeLa protein. The concentration of quinol was 50 mM, pH 7.
(§3) Ubiquinol oxidation was estimated based on increase in absorbance at 410 nm for ubiquinone (FIG. 1).

[4] = system: T3, NOX (NADH oxidase / ubiquinol oxidase) from HeLa cells; conditions: read-out: Km for reduced Q10H2; NOX partially purified from surface of HeLa cells; heading: Km for reduced Q10H2; cited from earlier work
T3 construct: rows headed: Km for quinol; other: substrate of NOX-catalyzed oxidation; Response of NOX-catalyzed oxidation of ubiquinol to agent; other: HeLa NOX preparation; Km for reduced Q10H2; other: NOX partially purified from surface of HeLa cells

[5] = system: T3, NOX (NADH oxidase / ubiquinol oxidase) from HeLa cells; assay: NOX-catalyzed oxidation of ubiquinol (preparation solubilized from HeLa cells); assay type: biochemical, human; conditions: read-out: Km for quinol; substrate of NOX-catalyzed oxidation; heading: Km for quinol
Experimental: as §2, §3

AR-NOX in sera = assay: Cytochrome c reduction by sera and inhibition by SOD or ubiquinone (Q10); assay type: biochemical, human
Experimental: as §1
Cytochrome c reduction by sera was assayed as for cells except that the samples were not mixed in between readings. The Q10 was added as an ethanolic solution.
Sera were obtained from the patient population of St. Elizabeth Hospital, Lafayette, Ind. and the resident population of St. Anthony's Health Care, Lafayette, Ind. Confidentiality of medical records was assured by assigning a number to each sample.

Effect on UV-induced superoxide generation by partially-purified oxidase [2]: inhibited
Type of inhibition of NOX-catalyzed oxidation of ubiquinol [3]: competitive
EC50 [3]: 0.001 µM
Structure (SMILES): COc1cc(CNC(=O)CCCC/C=C/C(C)C)ccc1O [capsaicin, 8-methyl-N-vanillyl-6-noneamide]
Inhibition of ubiquinol oxidase activity [1]: inhibited competitively
Effect on response to UV (superoxide generation) (BT-20): inhibited
Reduction of cytochrome c as a measure of superoxide formation, After UV, + Capsaicin (BT-20; 10 minutes of 254 nm UV, 2.5 mM capsaicin in DMSO, corrected for DMSO blank): −3.7 nmoles/min/10^6 cells
Effect on response to UV (superoxide generation) (HeLa S; HeLa): inhibited
Reduction of cytochrome c as a measure of superoxide formation, After UV, + Capsaicin (HeLa S; HeLa S, 10 minutes of 254 nm UV, 2.5 mM capsaicin in DMSO, corrected for DMSO blank): 0.8 nmoles/min/10^6 cells
Effect on UV-induced generation of superoxide (MCF 10A; MCF10A): unaffected
Reduction of cytochrome c as a measure of superoxide formation, After UV, + Capsaicin (MCF 10A; MCF 10A, 10 minutes of 254 nm UV, 2.5 mM capsaicin in DMSO, corrected for DMSO blank): 7.2 nmoles/min/10^6 cells

Type of inhibition of NOX-catalyzed oxidation of ubiquinol [3]: competitive
EC50 [3]: 0.03 µM
Structure (SMILES): Cc1ccc(S(=O)(=O)NC(=O)Nc2ccc(Cl)cc2)cc1 [LY181984, N-(4-methylphenylsulfonyl)-N′-(4-chlorophenyl)urea]
Inhibition of ubiquinol oxidase activity [1]: inhibited competitively

Structure (SMILES): COc1c(O)c(C)c(C/C=C(\C)CC/C=C(\C)CC/C=C(\C)CC/C=C(\C)CC/C=C(\C)CC/C=C(\C)CC/C=C(\C)CC/C=C(\C)CC/C=C(\C)CCC=C(C)C)c(O)c1OC [quinol]
Km [4]: 30 µM
Km [5]: 33 µM

Structure (SMILES): COC1=C(OC)C(=O)C(C/C=C(\C)CC/C=C(\C)CC/C=C(\C)CC/C=C(\C)CC/C=C(\C)CC/C=C(\C)CC/C=C(\C)CC/C=C(\C)CC/C=C(\C)CCC=C(C)C)=C(C)C1=O [Q10]
Effect on superoxide-generating, aging-related enzymatic activity of sera (AR-NOX in sera; 0.1 mM coenzyme Q, sera of elderly individuals 80-94 years): substantially reduced
Inhibition of reduction of cytochrome c by sera of aged patients, on average (AR-NOX in sera; sera of aged patients, average): 36%
Reduction of cytochrome c by sera, + 45 mg Q10 (AR-NOX in sera; sera of individuals 83-95 years (n = 5)): 2.5 ± 1.4 nmoles/min/ml/sera
